The text below walks through data of ChEMBL document CHEMBL2016485, “Design and optimization of quinazoline derivatives as melanin concentrating hormone receptor 1 (MCHR1) antagonists: part 2” (Bioorg Med Chem Lett, 2012).

Series [1] in a line: Cmax in rat at 30 mg/kg, po relative to initial plasma concentration. It is filed as ADME, organism-based. On the set-up: dose 30 mg/kg, route oral.
The nature of series [2]: Cmax at steady state in diet-induced obese C57BL/6J mouse model plasma at 100 mg/kg, po qd dosed through CMC/Tween 80 suspension for 14 days measured at day 14. In kind it is ADME, organism-based. Also on record: dose 100 mg/kg, route oral.
Series [3] is described as follows: Cmax in mouse at 30 mg/kg, po relative to initial plasma concentration. On the set-up: dose 30 mg/kg, route oral. In kind it is ADME, organism-based.
Series [4] is described as follows: Cmax at steady state in diet-induced obese C57BL/6J mouse model brain at 100 mg/kg, po qd dosed through CMC/Tween 80 suspension for 14 days measured at day 14. In kind it is ADME, organism-based. Also on record: dose 100 mg/kg, route oral.
Series [5] can be described thus: AUC (0 to 24 hrs) in mouse at 30 mg/kg, po. In kind it is ADME, organism-based. Also on record: time < 24 hr, dose 30 mg/kg, route oral. The conditions noted are these: plasma.
Series [6] is described as follows: AUC at steady state in diet-induced obese C57BL/6J mouse model plasma at 100 mg/kg, po qd dosed through CMC/Tween 80 suspension for 14 days measured at day 14. It is filed as ADME, organism-based. On the set-up: dose 100 mg/kg, route oral.
The nature of series [7]: AUC (0 to 24 hrs) in rat at 30 mg/kg, po. In kind it is ADME, organism-based. Also on record: time < 24 hr, dose 30 mg/kg, route oral. Particulars: plasma.
A short description of series [8]: Solubility in fasted state simulated intestinal fluid at pH 6.5 at 0.5 hrs. It is filed as physicochemical.
A short description of series [9]: AUC at steady state in diet-induced obese C57BL/6J mouse model brain at 100 mg/kg, po qd dosed through CMC/Tween 80 suspension for 14 days measured at day 14. In kind it is ADME, organism-based. Also on record: dose 100 mg/kg, route oral.
A short description of series [10]: Cmax at steady state in diet-induced obese C57BL/6J mouse model brain at 30 mg/kg, po bid dosed through micronized suspension for 14 days measured at day 14. In kind it is ADME, organism-based. Also on record: dose 30 mg/kg, route oral.
Series [11] in a line: AUC at steady state in diet-induced obese C57BL/6J mouse model brain at 30 mg/kg, po bid dosed through micronized suspension for 14 days measured at day 14. On the set-up: dose 30 mg/kg, route oral. In kind it is ADME, organism-based.
A short description of series [12]: AUC at steady state in diet-induced obese C57BL/6J mouse model plasma at 30 mg/kg, po bid dosed through micronized suspension for 14 days measured at day 14. It is filed as ADME, organism-based. On the set-up: dose 30 mg/kg, route oral.
The nature of series [13]: Cmax at steady state in diet-induced obese C57BL/6J mouse model plasma at 30 mg/kg, po bid dosed through micronized suspension for 14 days measured at day 14. In kind it is ADME, organism-based. Also on record: dose 30 mg/kg, route oral.
A short description of series [14]: Cmax in dog at 5 mg/kg, po relative to initial plasma concentration. On the set-up: dose 5 mg/kg, route oral. It is filed as ADME, organism-based, Canis lupus familiaris.
A short description of series [15]: Cmax in dog at 6 mg/kg, iv relative to initial plasma concentration. In kind it is ADME, organism-based, Canis lupus familiaris. On the set-up: dose 6 mg/kg, route intravenous.
The nature of series [16]: AUC (0 to 24 hrs) in dog at 6 mg/kg, iv. In kind it is ADME, organism-based, Canis lupus familiaris. On the set-up: time < 24 hr, dose 6 mg/kg, route intravenous. Particulars: plasma.
A short description of series [17]: Cmax in beagle dog at 6 mg/kg, iv. It is filed as ADME, organism-based, Canis lupus familiaris. The conditions noted are these: in vivo. Also on record: dose 6 mg/kg, route intravenous.
The nature of series [18]: AUC (0 to 24 hrs) in dog at 5 mg/kg, po. In kind it is ADME, organism-based, Canis lupus familiaris. Also on record: time < 24 hr, dose 5 mg/kg, route oral. The conditions noted are these: plasma.

≈ marks a conversion by molar mass, not a printed value.

`Cc1nc(N2CCC(O)(C3CC3)CC2)nc2ccc(NC(=O)/C=C/c3ccc(Cl)cc3)cc12`: the Cmax in series [1] stood at 2.4 µM; in series [2], 5.9 µM; in series [3], 2100 nM; in [4] it was 2100 nM. Besides, the area under the curve AUC(0-t) at 24 h in [5] was determined as 33.4 µM·h; in series [7], 26.6 µM·h. Also, the values for the exposure (AUC) at 336 h in series [6] and in series [9] were 104 µM·h and 30.2 µM·h, respectively. Besides, the solubility at 0.5 h in series [8] was 1.7 µM (≈ 0.787 µg/mL).

Consider `Cc1nc(N2CCC(N3CCOCC3=O)CC2)nc2ccc(NC(=O)/C=C/c3ccc(OC(F)(F)F)cc3)cc12`, for which the highest concentration (Cmax) was 6.3 µM in series [10] and 16.5 µM in series [13]. For the same compound, the AUC at 336 h in series [11] amounted to 104 µM·h; in series [12], 312 µM·h.

Consider `Cc1nc(N2CCC(N3CCCC3=O)CC2)nc2ccc(NC(=O)/C=C/c3ccc(OC(F)(F)F)cc3)cc12`, for which the figures for the Cmax in [10] and in series [13] were 5.6 µM and 17.7 µM, respectively. The AUC at 336 h came to 95.1 µM·h in series [11] and 385 µM·h in series [12].

As to `Cc1nc(N2CCC(N3CCOC3=O)CC2)nc2ccc(NC(=O)/C=C/c3ccc(OC(F)(F)F)cc3)cc12`, the Cmax in [10] worked out at 3.7 µM; in series [13], 12.7 µM. The AUC at 336 h worked out at 67.6 µM·h in series [11] and 284 µM·h in [12].

In the case of `CS(=O)(=O)O.Cc1nc(N2CCC(O)(C3CC3)CC2)nc2ccc(NC(=O)/C=C/c3ccc(Cl)cc3)cc12`, the peak concentration (Cmax) is 2500 nM in series [14], 9.9 µM in [15], 7.8 µM in [1] and 6.4 µM in series [17]. For the same compound, the area under the curve AUC(0-t) at 24 h amounted to 43.5 µM·h in series [16], 79.6 µM·h in series [7] and 37.7 µM·h in [18]. In addition, in series [8], the concentration in solution (solubility at 0.5 h) came to 11.2 µM.

In general, Cmax refers to the peak of the concentration-time curve. As a reminder, the AUC(0-t) is exposure summed from dosing to a finite time, without extrapolation to infinity. Low readings indicate less exposure, high ones more exposure. By AUC is commonly meant the area under the concentration-time curve, a measure of exposure. What is called solubility is the concentration that dissolves in the medium under given conditions. A low value points to little dissolved substance.
